We go through two compounds from US7754463B2, “Inhibitors of USP1 Deubiquitinating Enzyme Complex” (Dana-Farber Cancer Institute, priority 2006, dated 2010).

Starred links: 1 amine or outer side, 2 acyl side, 3 side chain; linkers in the order of their positions; H or OH if unused. Positions of bridges follow the written chain, without caps; N, C: chain ends. Non-standard residues stand in square brackets, D forms with d. Residues, ends and D or L forms follow the SMILES beside them. Chains are numbered I, II in the order given. Actinocin(9to1) = Cc1c2oc3c(C)ccc(C(=O)[*:1])c3nc-2c(C(=O)[*:2])c(N)c1=O; NMeV = CN[C@H](C(=O)O)C(C)C; Sar = CNCC(=O)O

One data set deals with USP1 mRNA. The data set is described as follows: USP1 mRNA level after transcription inhibition (Northern blot). The format is cell-based, human. The settings on record: Actinomycin D, UV or both; data not shown. On the procedure:
Northern blot analysis was performed as described using the 394 nt PstI-EcoRV fragment of the USP1 cDNA (Cohn, M. A., Kramerov, D., Hulgaard, E. F., and Lukanidin, E. M. (1997). The differentiation antigen Ly-6E.1 is expressed in mouse metastatic tumor cell lines. FEBS Lett 403, 181-185).
UAF1 protein levels were not affected by UV irradiation (FIG. 6A and FIG. 6B). It was speculated that one regulatory event that may reduce USP1 activity after DNA damage may be transcriptional down-regulation of the USP1 gene. To test this hypothesis, USP1 mRNA levels were measured in 293T cells after UV irradiation. A rapid decrease of the USP1 mRNA (FIG. 6C) was observed, with kinetics reflecting the decrease of USP1 protein (FIG. 6B). […] To test whether active mRNA degradation also play a role in addition to transcriptional regulation, transcription was inhibited by Actinomycin D, an effective inhibitor of RNA polymerase II, cells were irradiated with UV, or both treatments were combined. […] Importantly, the level of full length USP1 decreased with kinetics similar to those in cells treated with UV irradiation (FIG. 6B).

For data set [1], the system named is USP1. The data set is described as follows: USP1 protein level after blocking transcription in 293T cells. As to conditions: 5 μg/ml. The format is cell-based, human. On the procedure: (§1) A) HeLa cells expressing exogenous Flag-HA-USP1 were irradiated with 50 J/m^2 and samples were taken at the indicated times. Flag-HA-USP1 was immunoprecipitated using anti-Flag antibodies and the immunoprecipitates were analyzed by immunoblotting using the indicated antibodies with the exception of Flag-HA-USP1, which was detected using the mouse monoclonal 12CA5 antibody. B) HeLa cells were UV irradiated with 50 J/m^2 (UVC) and samples were taken at the indicated times. Protein samples were analyzed by immunoblotting using the indicated antibodies. C) 293T cells were UV irradiated with 100 J/m^2 (UVC) and samples were taken at the indicated times. Total RNA was prepared an analyzed by Northern blot analysis using the indicated probes. D) Quantification of the USP1 and total RNA intensities from C. E) 293T cells were treated with 5 μg/ml Actinomycin D and samples were taken at the indicated times. Protein samples were analyzed by immunoblotting using the indicated antibodies.
(§2) UAF1 protein levels were not affected by UV irradiation (FIG. 6A and FIG. 6B). It was speculated that one regulatory event that may reduce USP1 activity after DNA damage may be transcriptional down-regulation of the USP1 gene. To test this hypothesis, USP1 mRNA levels were measured in 293T cells after UV irradiation. […]

A further data set relates to UAF1. The data set is described as follows: UAF1 protein level after blocking transcription in 293T cells. Type of data set: cell-based, human. The settings on record: 5 μg/ml. Here is the method:
as §1, §2

Data set [2] has as its target T1, USP1 (Homo sapiens, UniProt O94782, G670A/G671A).
T1 construct: His tag (N); made in house; host or cells: Sf9 insect cells
T1 sequence (O94782 1-785 G670A/G671A): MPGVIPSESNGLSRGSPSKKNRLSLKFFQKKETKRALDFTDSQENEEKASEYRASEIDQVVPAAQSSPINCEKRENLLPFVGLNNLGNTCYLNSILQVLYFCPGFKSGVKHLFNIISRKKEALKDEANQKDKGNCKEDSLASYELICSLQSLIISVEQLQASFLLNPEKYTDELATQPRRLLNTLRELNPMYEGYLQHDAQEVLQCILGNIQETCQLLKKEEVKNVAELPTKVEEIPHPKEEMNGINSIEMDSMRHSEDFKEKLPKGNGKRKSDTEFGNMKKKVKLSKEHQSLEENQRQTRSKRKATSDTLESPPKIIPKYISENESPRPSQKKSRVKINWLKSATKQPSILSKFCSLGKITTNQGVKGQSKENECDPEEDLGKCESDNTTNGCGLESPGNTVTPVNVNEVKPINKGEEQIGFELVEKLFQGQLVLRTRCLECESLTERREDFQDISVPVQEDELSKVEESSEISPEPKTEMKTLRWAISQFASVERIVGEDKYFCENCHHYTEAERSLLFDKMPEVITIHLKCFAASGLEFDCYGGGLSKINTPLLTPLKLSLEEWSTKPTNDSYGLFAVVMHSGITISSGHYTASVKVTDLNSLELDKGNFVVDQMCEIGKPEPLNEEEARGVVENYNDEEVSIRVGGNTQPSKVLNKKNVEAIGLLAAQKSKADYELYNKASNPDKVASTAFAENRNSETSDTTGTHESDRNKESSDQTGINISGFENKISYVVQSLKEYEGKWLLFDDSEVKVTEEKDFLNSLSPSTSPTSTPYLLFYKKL
Put plainly: Activation of USP1 enzymatic activity in vitro by UAF1 wild type or mutant protein. As to conditions: all proteins 10 nM, Ub-AMC. The format is biochemical. On the procedure:
A) Scheme of wild type UAF1 and deletion mutants thereof. B) Flag-tagged deletion mutants of UAF1 were transiently expressed in 293T cells. The Flag-tagged proteins were immunoprecipitated from cell lysates using anti-Flag antibodies. The immunoprecipitates were analyzed using the indicated antibodies. C) A mutant protein of UAF1 where the second WD40 repeat has been deleted (UAF1-ΔWD2) fails to activate USP1 enzymatic activity in vitro. Strep-tagged UAF1-ΔWD2 was expressed and purified from Sf9 insect cells. The enzymatic activity of the USP1 enzyme was monitored as UAF1 wild type or mutant proteins was added to the reaction. The concentrations of all proteins were 10 nM.
The above experiments were performed using a preformed USP1/UAF1 complex. To gain further insight into the dynamics of USP1/UAF1 complex formation and USP1 activation, the kinetics of UAF1 binding and activation of USP1 were investigated. An in vitro enzymatic reaction of USP1 was set up using Ubiquitin-AMC as a substrate. Ten minutes into the reaction, during the stable and low substrate-turnover, either buffer or purified UAF1 protein was added in an equimolar amount to USP1. […] Given the affinity between the two proteins, it was predicted that as USP1 is synthesized in the cell, it rapidly forms a complex with UAF1. If UAF1 is not available, the protein is destabilized and degraded. […]

A further data set has as its system Ubiquitin-AMC. The data set is described as follows: In vitro enzymatic activity and kinetics of purified USP1, UAF1 and USP1/UAF1 with Ubiquitin-AMC. Type of data set: biochemical, human. Here is the method:
A) Coomassie blue stain of purified USP1 and UAF1 proteins, expressed either alone of simultaneously as a protein complex in Sf9 cells. B) The in vitro enzymatic activity of USP1, UAF1 or the USP1/UAF1 complex was assayed using Ub-AMC as a substrate. The concentration of each protein was 10 nM. C) Calculation of slopes of the curves in B. The activity of USP1 was arbitrarily set to a value of 1. Relative values for UAF1 and USP1/UAF1 were −0.25 and 36.25, respectively. The slightly negative value for UAF1 is a result of photo bleaching during the experiment. D) UAF1 activates USP1 instantly upon binding in vitro. The enzymatic activity of the USP1 enzyme was monitored as UAF1 was added to the reaction. The concentrations of both USP1 and UAF1 were 2 nM. E) Km and kcat values of the USP1 enzyme and the USP1/UAF1 complex were determined by measuring the substrate conversion at constant enzyme concentration (20 nM for USP1 and 2 nM for the USP1/UAF1 complex) and various substrate concentrations (final concentrations of Ub-AMC of 0.6 μM, 0.75 μM, 1 μM, 1.5 μM and 3 μM for USP1; and 0.42 μM, 0.525 μM, 0.7 μM, 1.05 μM, 2.1 μM […] for the USP1/UAF1 complex). Km and kcat values were calculated by plotting the obtained conversion values in a double-reciprocal Lineweaver-Burk plot. Standard deviation of Km and kcat were calculated from 5-6 independent repeats of the above measurements and are shown in brackets in the table.
Transcription/translation in rabbit reticulocyte was performed according to manufactures recommendations with the exception that the reactions were performed at 30° C. (Promega). In vitro enzymatic assays in the presence of 5 μM Ubiquitin-VS (Ubiquitin-Vinyl Sulfone; U-202; Boston Biochem) were performed 30° C. In vitro enzymatic assays using Ubiquitin-AMC (Ubiquitin-7-amido-4-methylcoumarin; U-550; Boston Biochem) were performed in 50-100 μl reaction buffer (20 mM HEPES-KOH pH 7.8, 20 mM NaCl, 0.1 mg/ml Ovalbumin (A7641; Sigma), 0.5 mM EDTA and 10 mM DTT) at 37° C. Fluorescence was monitored in a FluoStar Galaxy Fluorometer (BMG Labtech Inc.). In vitro deubiquitination reactions of Ub-FANCD2 were performed in 10 μl reaction buffer (90 mM Tris-HCl pH 8.0, 50 mM NaCl, 0.03% NP-40, 4 mg/ml BSA and 2 mM DTT) for 2 h at 30° C.
The enzymatic activity of the purified proteins was assayed using fluorogenic Ubiquitin-AMC as a substrate. […] The activity of the USP1/UAF1 heterodimer was about 30-fold higher than the activity of USP1 alone (FIG. 3C).
In order to better understand the enzymatic consequences of the complex-formation between UAF1 and USP1, the kinetic parameters of the USP1 enzyme alone and the UAF1/USP1 complex were determined. […] This mechanism of activation contrasts with that of another deubiquitinating enzyme, Uch37, which is involved in proteasome-mediated protein degradation. Uch37 is activated by the Adrm1 protein. […] Nat Cell Biol 8, 994-1002).

Consider `Cc1c2oc3c(C)ccc(C(=O)N[C@@H]4C(=O)N[C@H](C(C)C)C(=O)N5CCC[C@H]5C(=O)N(C)CC(=O)N(C)[C@@H](C(C)C)C(=O)O[C@@H]4C)c3nc-2c(C(=O)N[C@@H]2C(=O)N[C@H](C(C)C)C(=O)N3CCC[C@H]3C(=O)N(C)CC(=O)N(C)[C@@H](C(C)C)C(=O)O[C@@H]2C)c(N)c1=O` [Actinomycin D] (I: T[dV]P[Sar][NMeV] / II: T[dV]P[Sar][NMeV]; ester I:1-I:C, II:1-II:C; linker I:N-II:N via Actinocin(9to1)), for which the “USP1 mRNA level” value in the data set on USP1 mRNA was “decreased with similar kinetics in all three cases”. Also, in the data set with USP1 [1], the “USP1 protein levels over time” value is listed as “decrease of USP1 protein levels over time”. Besides, the “level of UAF1 protein” value with UAF1 was “remained unchanged”.
With “UAF1: purified USP1 Associated Factor 1, WD40 repeat protein (SEQ ID NO:4)”, in the data set with USP1 [2], the “stimulation of USP1 enzymatic activity” value is reported as “able to stimulate the enzymatic activity of USP1”. The “relative activity (slope of Ub-AMC curve), USP1 set to 1” value with Ubiquitin-AMC (10 nM each protein) was −0.25. Further, the “deubiquitinating activity on Ubiquitin-AMC” value in the data set on Ubiquitin-AMC (purified protein alone) is listed as “no detectable deubiquitinating activity”.
